Each structure is given as a SMILES string.

In the test the target is human Kv7.2 (Homo sapiens (Human), UniProt O43526). Put plainly: SyncroPatch 384 electrophysiology, activation of Kv7.2 in CHO cells. It is filed as cell-based. The settings on record: Kv7.2 activation max %, relative to 30 μM ML-213 max activation. As to the method:
The potency of Kv7 uotentiators was determined using the SyncroPatch 384 (Nanion) high throughput electrophysiology platform.
CHO cells stably expressing either human Kv7.2, Kv7.4 or Kv7.5/7.3 under a constitutive CMV promoter were used for these studies. Cells were maintained in F12 Hams+1 mM L-glutamine (Hyclone) supplemented with 10% FBS (Sigma), 0.3× NEAA (Non-essential Gamino-acids) and 400ug/ml G418 at 37° C. in 5% CO2. Cells were cultured in T-225 flasks (Nunc) for 2-3 days to reach 85-95% confluence prior to electrophysiological recording.
Earle's balanced salt solution (in mM): 135 NaCl, 5.4 KCl, 5 Glucose, 2 CaCl2), 1 MgCl2, 5 HEPES, pH 7.4. Seal enhancer solution (in mM): 90 NaCl, 3 KCl, 35 CaCl2), 10 MgCl2, 10 HEPES, pH 7.4. Extracellular recording solution (in mM): 71 NaCl, 70 NMDG, 13 KCl, 5 Glucose, 2 CaCl2), 1 MgCl2, 10 HEPES, pH 7.4. Intracellular recording solution (in mM): 130 KF, 20 KCl, 4 EGTA, 10 HEPES, 2 EDTA, 0.01 Escin, pH 7.2.
Cells were harvested for electrophysiological recording upon reaching appropriate confluence. Cells were first washed in DPBS (Hyclone, Cat #SH30028.03) and then 2 ml of Accutase (MP Biomedicals #1000449) was added at 28° C. until ˜90% of cells were suspended. F12 HAM's media+1 mM L-glutamine (Hyclone, SH30026.02) was then added to the flask to dilute the accutase. Cells were then triturated until a single cell suspension was achieved, a cell count was performed, and cells were centrifuged for 2 min. at 1,000 rpm. Media was then aspirated, and cells were resuspended in Earle's balanced salt solution to a concentration of 0.75×10^6 cells/ml and allowed to recover for 25 min at 10° C.
At the beginning of each assay, 20 μl of cell suspension was dispensed into each well of a multi-hole 384-well SyncroPatch chip by the onboard pipettor. Cell sealing was initiated, and seal enhancer solution was added to facilitate seal formation. Upon completion of sealing, cells were washed 3 times with extracellular recording solution and the assay voltage protocol was started. Human Kv7.2, Kv7.4 or Kv7.5/7.3 channels were evaluated using a voltage protocol in which cells were voltage-clamped at a holding potential of −60 mV. Potassium currents were continuously activated with a series of three voltage steps to −30 mV for 3 seconds, 40 mV for 1 second and −90 mV for 4 seconds with 12 seconds between successive voltage sweeps. Potassium currents were measured from the −90 mV repolarizing step. Baseline current was assessed for 3.5 minutes prior to the addition of 5.6 μM zinc pyrithione (1μM for Kv7.4). Kv7.2, Kv7.4 or Kv7.5/7.3 current in the presence of zinc pyrithione was acquired over five minutes to allow channels to reach steady state activity prior to addition of test agents. Channel activity was monitored for three minutes preceding the addition of 30 μM ML-213 (3 minutes) to achieve maximum activation. 150 mM TEA with 10 μM XE-991 was applied for 2 minutes to measure the leak current during maximum inhibition of Kv7.2, Kv7.4 or Kv7.5/7.3 channels.
Example 61 Data Analysis Data were collected on the SyncroPatch platform using PatchControl software (Nanion) and processed and analyzed using DataControl Software (Nanion). Percent activation was calculated from potassium current as follows: The average current for the 5 sweeps in the presence of zinc pyrithione immediately preceding test agent addition was taken as the ‘control’ data. Likewise, the average potassium current in the presence of test agents 5 sweeps immediately preceding addition of 30 μM ML-213 was determined for ‘drug’ data. The average potassium current 5 sweeps immediately prior to addition of 150 mM TEA+10 μM XE-991 was determined for ‘max activation’ data while average currents from 5 sweeps immediately following addition of TEA was determined for ‘max inhibition’ data. […]
Consider `O=C(NCc1cccc(C(F)(F)F)c1)NC12CC(C(F)F)(C1)C2` [Example 22, 1-[3-(difluoromethyl)-1-bicyclo[1.1.1]pentanyl]-3-[[3-(trifluoromethyl)phenyl]methyl]urea], for which the Kv7.2 max is listed as 74%.
With `CC12CC(NC(=O)NCc3cccc(OC(F)(F)F)c3)(C1)C2` [Example 46, 1-(3-methyl-1-bicyclo[1.1.1]pentanyl)-3-[[3-(trifluoromethoxy)phenyl]methyl]urea], the Kv7.2 max was determined as 86%.
The same measure for `CC(C)(C)c1cccc(CNC(=O)NC23CC(C2)C3)c1` [Example 42, 1-(1-bicyclo[1.1.1]pentanyl)-3-[(3-tert-butylphenyl)methyl]urea]: 110%; for `C[C@H](NC(=O)NC12CC(F)(C1)C2)c1cccc(Br)c1` [Example 16, 1-[(1S)-1-(3-bromophenyl)ethyl]-3-(3-fluoro-1-bicyclo[1.1.1]pentanyl)urea]: 40%.
The result for `O=C(NCc1ccc(F)c(OC(F)F)c1)NC12CC(C(F)(F)F)(C1)C2` [Example 56, 1-[[3-(difluoromethoxy)-4-fluorophenyl]methyl]-3-[3-(trifluoromethyl)-1-bicyclo[1.1.1]pentanyl]urea] reads 44%.
The result for `O=C(NCc1cccc(Br)c1)NC12CC(C1)C2` [Example 40, 1-(1-bicyclo[1.1.1]pentanyl)-3-[(3-bromophenyl)methyl]urea] reads 58%; that for `C[C@H](NC(=O)NC12CC(F)(C1)C2)c1cccc(C(F)(F)F)c1` [Example 9, 1-(3-fluoro-1-bicyclo[1.1.1]pentanyl)-3-[(1S)-1-[3-(trifluoromethyl)phenyl]ethyl]urea], 51%; that for `N#CCOc1cccc(CNC(=O)NC23CC(C(F)(F)F)(C2)C3)c1` [Example 49, 1-[[3-(cyanomethoxy)phenyl]methyl]-3-[3-(trifluoromethyl)-1-bicyclo[1.1.1]pentanyl]urea], 53%.
`O=C(NC12CC(C1)C2)NC1(c2cccc(C(F)(F)F)c2)CC1` [Example 53, 1-(1-bicyclo[1.1.1]pentanyl)-3-[1-[3-(trifluoromethyl)phenyl]cyclopropyl]urea]: the Kv7.2 max is 82%.
As to `O=C(NCc1cccc(Br)c1)NC12CC(C(F)(F)F)(C1)C2` [Example 36, 1-[(3-bromophenyl)methyl]-3-[3-(trifluoromethyl)-1-bicyclo[1.1.1]pentanyl]urea], the Kv7.2 max was found to be 55%.
The same measure for `O=C(NCc1cccc(OC(F)(F)F)c1)NC12CC(F)(C1)C2` [Example 6, 1-(3-fluoro-1-bicyclo[1.1.1]pentanyl)-3-[[3-(trifluoromethoxy)phenyl]methyl]urea]: 76%; for `N#Cc1cccc(CNC(=O)NC23CC(C(F)F)(C2)C3)c1` [Example 15, 1-[(3-cyanophenyl)methyl]-3-[3-(difluoromethyl)-1-bicyclo[1.1.1]pentanyl]urea]: 58%; for `O=C(NCc1cccc(OC(F)(F)F)c1F)NC12CC(C(F)(F)F)(C1)C2` [Example 57, 1-[[3-(trifluoromethoxy)-2-fluorophenyl]methyl]-3-[3-(trifluoromethyl)-1-bicyclo[1.1.1]pentanyl]urea]: 45%.
The same measure for `C#Cc1cccc(CNC(=O)NC23CC(C(F)(F)F)(C2)C3)c1` [Example 32, 1-[(3-ethynylphenyl)methyl]-3-[3-(trifluoromethyl)-1-bicyclo[1.1.1]pentanyl]urea]: 54%; for `CC(C)C12CC(NC(=O)NCc3cccc(C(F)(F)F)c3)(C1)C2` [Example 21, 1-(3-propan-2-yl-1-bicyclo[1.1.1]pentanyl)-3-[[3-(trifluoromethyl)phenyl]methyl]urea]: 67%; for `O=C(N[C@@H](CO)c1cccc(Br)c1)NC12CC(F)(C1)C2` [Example 17, 1-[(1R)-1-(3-bromophenyl)-2-hydroxyethyl]-3-(3-fluoro-1-bicyclo[1.1.1]pentanyl)urea]: 69%.
Compound `O=C(NCc1cccc(C=C(F)F)c1)NC12CC(F)(C1)C2` [Example 45, 1-[[3-(2,2-difluoroethenyl)phenyl]methyl]-3-(3-fluoro-1-bicyclo[1.1.1]pentanyl)urea] returned a Kv7.2 max of 71%.
For the compound `CC12CC(NC(=O)NCc3cccc(C#N)c3)(C1)C2` [Example 14, 1-[(3-cyanophenyl)methyl]-3-(3-methyl-1-bicyclo[1.1.1]pentanyl)urea], the Kv7.2 max was determined as 50%.
In turn, `C[C@H](NC(=O)NC12CC(C1)C2)c1cccc(OC(F)(F)F)c1` [Example 25, 1-(1-bicyclo[1.1.1]pentanyl)-3-[(1S)-1-[3-(trifluoromethoxy)phenyl]ethyl]urea] returned a Kv7.2 max of 45%.
The same measure for `O=C(NCc1cccc(OC(F)(F)F)c1)NC12CC(C1)C2` [Example 28, 1-(1-bicyclo[1.1.1]pentanyl)-3-[[3-(trifluoromethoxy)phenyl]methyl]urea]: 75%; for `CC(C)C12CC(NC(=O)N[C@@H](C)c3cccc(OC(F)(F)F)c3)(C1)C2` [Example 27, 1-(3-propan-2-yl-1-bicyclo[1.1.1]pentanyl)-3-[(1S)-1-[3-(trifluoromethoxy)phenyl]ethyl]urea]: 40%.
On to `CC12CC(NC(=O)NCc3cccc(C(F)(F)F)c3)(C1)C2` [Example 20, 1-(3-methyl-1-bicyclo[1.1.1]pentanyl)-3-[[3-(trifluoromethyl)phenyl]methyl]urea], for which the Kv7.2 max is 77%.
The same measure for `N#Cc1cccc(CNC(=O)NC23CC(C(F)(F)F)(C2)C3)c1` [Example 5, 1-[(3-cyanophenyl)methyl]-3-[3-(trifluoromethyl)-1-bicyclo[1.1.1]pentanyl]urea]: 41%; for `O=C(N[C@@H](CO)c1cccc(Br)c1)NC12CC(C(F)(F)F)(C1)C2` [Example 12, 1-[(1R)-1-(3-bromophenyl)-2-hydroxyethyl]-3-[3-(trifluoromethyl)-1-bicyclo[1.1.1]pentanyl]urea]: 69%; for `O=C(N[C@@H](CO)c1cccc(Cl)c1)NC12CC(C(F)(F)F)(C1)C2` [Example 3, 1-[(1R)-1-(3-chlorophenyl)-2-hydroxyethyl]-3-[3-(trifluoromethyl)-1-bicyclo[1.1.1]pentanyl]urea]: 48%.
The result for `O=C(N[C@@H](CO)c1cccc(C(F)(F)F)c1)NC12CC(C(F)(F)F)(C1)C2` [Example 48, 1-[(1R)-2-hydroxy-1-[3-(trifluoromethyl)phenyl]ethyl]-3-[3-(trifluoromethyl)-1-bicyclo[1.1.1]pentanyl]urea] reads 78%; that for `C[C@H](NC(=O)NC12CC(F)(C1)C2)c1cccc(OC(F)(F)F)c1` [Example 10, 1-(3-fluoro-1-bicyclo[1.1.1]pentanyl)-3-[(1S)-1-[3-(trifluoromethoxy)phenyl]ethyl]urea], 40%; that for `[2H]C([2H])(NC(=O)NC12CC(C(F)(F)F)(C1)C2)c1cccc(OC(F)(F)F)c1` [Example 35, 1-[dideuterio-[3-(trifluoromethoxy)phenyl]methyl]-3-[3-(trifluoromethyl)-1-bicyclo[1.1.1]pentanyl]urea], 63%.
`O=C(NCc1cccc(OCC(F)(F)F)c1)NC12CC(C(F)(F)F)(C1)C2` [Example 58, 1-[[3-(2,2,2-trifluoroethoxy)phenyl]methyl]-3-[3-(trifluoromethyl)-1-bicyclo[1.1.1]pentanyl]urea] came in with a Kv7.2 max of 67%.

For the origin of these results see patent publication US20250002452A1, “BICYCLOPENTANE DERIVATIVES” (ICAGEN, LLC, priority 2022, published 2025).
